Experimental data: patent US20240010658A1, “ABHD6 ANTAGONIST” (ONO PHARMACEUTICAL CO., LTD., priority 2021, published 2024)

What was measured:
[1] = molecular target: recombinant human ABHD6 (33-337) (Homo sapiens (Human), UniProt Q9BV23); test: Evaluation of ABHD6 enzyme inhibitory activity (arachidonic acid production from 1-arachidonoyl glycerol, RapidFire-MS); type: biochemical; conditions: inhibition of arachidonic acid production, 10 μmol/L 1-arachidonoyl glycerol, 1 hour, room temperature
Sequence of recombinant human ABHD6 (33-337) (Q9BV23 33-337): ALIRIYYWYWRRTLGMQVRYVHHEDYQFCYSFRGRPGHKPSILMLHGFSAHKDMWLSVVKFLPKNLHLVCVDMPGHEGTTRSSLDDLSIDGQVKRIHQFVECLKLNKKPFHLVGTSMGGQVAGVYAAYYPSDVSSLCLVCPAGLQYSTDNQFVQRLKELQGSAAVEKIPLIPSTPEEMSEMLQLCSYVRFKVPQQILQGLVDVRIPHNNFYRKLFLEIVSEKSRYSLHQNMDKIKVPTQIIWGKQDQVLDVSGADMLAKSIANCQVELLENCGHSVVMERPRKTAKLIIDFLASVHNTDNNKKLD
Protocol: The recombinant human ABHD6 (33-337) was a GST-tagged ABHD6, and one which was expressed in E. coli, then purified with a Glutathione-Sepharose 4B resin, and then concentrated was used. The enzyme reaction was carried out at room temperature using a 384-well microplate made of polypropylene, and wells to which no enzyme was added were designated as a blank group.
One hour after the start of the enzyme reaction, methanol containing, as an internal standard substance, arachidonic acid-d8 (Cayman Chemical) and 1% formic acid was added to stop enzymatic reaction. The upper part of the enzyme reaction plate was sealed with aluminum, and centrifugation was performed at 560 g for 5 minutes at room temperature. Then, arachidonic acid as an enzyme reaction product and arachidonic acid-ds as the internal standard substance were quantified with RapidFire (registered trademark)-Mass Spectrometry system.

[2] = molecular target: human ABHD6 (Homo sapiens (Human), UniProt Q9BV23); test: Measurement of binding affinity for human ABHD6 (BRET, HEK293 cells expressing NanoLuc-human ABHD6 fusion protein); conditions: BRET competition with fluorescent probe molecule 100 nmol/L in HEK293 cells expressing NanoLuc-human ABHD6
Sequence of human ABHD6 (Q9BV23 whole entry, the tested form may be a part): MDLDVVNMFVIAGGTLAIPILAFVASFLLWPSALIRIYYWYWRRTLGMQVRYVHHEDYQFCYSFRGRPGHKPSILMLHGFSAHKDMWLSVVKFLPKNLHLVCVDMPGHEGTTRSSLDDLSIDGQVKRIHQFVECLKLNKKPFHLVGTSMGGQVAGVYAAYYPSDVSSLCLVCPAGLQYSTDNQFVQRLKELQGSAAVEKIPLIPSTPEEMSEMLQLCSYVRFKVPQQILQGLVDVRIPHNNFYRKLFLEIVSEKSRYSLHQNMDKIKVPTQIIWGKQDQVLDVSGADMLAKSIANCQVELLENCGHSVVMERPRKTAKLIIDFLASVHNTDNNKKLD
Protocol: The binding affinity of the test compound for human ABHD6 was measured using bioluminescence resonance energy transfer (hereinafter, abbreviated as BRET) as an index. The bioluminescence resonance energy transfer is induced by the proximity of a probe molecule and a NanoLuc-human ABHD6 fusion protein, which is caused by allowing a fluorescent probe molecule and a test compound to act in a competitive manner using HEK293 cells forcibly expressing the NanoLuc-human ABHD6 fusion protein.
The test compound and the compound described in Example 2 as a control substance were each dissolved in dimethyl sulfoxide (DMSO) to prepare a 10 mmol/L solution. The prepared 10 mmol/L solution was thawed at the time of use, serially diluted with DMSO, and subjected to an experiment.
HEK293 cells expressing a NanoLuc-human ABHD6 fusion protein were statically cultured at 37° C. in the presence of 5% CO2 using inactivated (56° C., 30 min) 9.8 vol % non-dialyzed-FBS (containing 0.5 vol % GENETICIN and 1% penicillin-streptomycin). The subculture was performed by the following method.
The culture medium was removed, and the cells were washed once with phosphate buffered saline without Ca^2+ and Mg^2+. An appropriate amount of trypsin-EDTA was added, and the cells were incubated at room temperature. After the cells were detached, a culture medium in a volume 10-fold the volume of trypsin-EDTA (0.05%) was added to stop an enzyme reaction. The cells were collected in a centrifuge tube, and centrifuged at room temperature for 3 minutes at 120 g, and the supernatant was removed. The cells were suspended in an appropriate amount of culture medium and seeded in a culture flask.
HEK293 cells expressing a NanoLuc-human ABHD6 fusion protein were prepared, and then cryopreserved so as to be 5.0×10^6 cells/mL/vial in CELLBANKER2, and the cells were subjected to an experiment. HBSS (+) containing 20 mmol/L HEPES (pH 7.3) and 0.1% BSA was prepared and used as an assay buffer. The cells were thawed and suspended in the assay buffer to prepare a cell suspension of 2×10^5 cells/mL. […] The plate was allowed to stand at 37° C. for 30 minutes in the presence of 5% CO2. Then, a probe molecule (10 mmol/L in DMSO) having a fluorophore was diluted with the assay buffer so as to have a final concentration of 100 nmol/L, and added to the assay plate in an amount of 15 μL each. Further, this was allowed to stand at 37° C. for 30 minutes in the presence of 5% CO2. Then, a Nano-Glo (registered trademark) Vivazine (trademark) substrate (Promega Corporation) was diluted with the assay buffer according to the method described in the protocol, and added to the assay plate in an amount of 10 μL each, and this was allowed to stand at room temperature for 1 hour. Thereafter, the luminescence and fluorescence intensity were measured using a GloMax (registered trademark) discover system. The ratio between the emission intensity through the 450 nm bandpass filter and the fluorescence intensity through the 600 nm longpass filter was defined as the measured value of each sample. The measured value of the group containing the control substance at a final concentration of 30 μmol/L was defined as 100% inhibition. The measured value of the group not containing the compound was defined as 0% inhibition. The IC50 value of the test compound was determined from the measured value at each test compound concentration.

Compound | IC50 [1] | IC50 [2]
Cc1ccc(C(=O)N2C[C@@H]3CC[C@@H](Nc4nnc(Cl)cc4C#N)[C@@H]3C2)s1 (relative stereo) [Example 9, rel-6-Chloro-3-({(3aS,4R,6aR)-2-[(5-methyl-2-thienyl)carbonyl]octahydrocyclopenta[c]pyrrol-4-yl}amino)-4-pyridazinecarbonitrile] | 2 nM | 8 nM
O=C(c1ccc(C(F)F)s1)N1C[C@@H]2CC[C@@H](Nc3ccc(Cl)nn3)[C@@H]2C1 [Example 1, {(3aS,4R,6aR)-4-[(6-Chloro-3-pyridazinyl)amino]hexahydrocyclopenta[c]pyrrol-2(1H)-yl}[5-(difluoromethyl)-2-thienyl]methanone] | 1 nM | 11 nM
Cc1ccc(C(=O)N2C[C@@H]3CC[C@@H](Nc4ccc(Cl)nn4)[C@@H]3C2)s1 [Example 1-2, {(3aS,4R,6aR)-4-[(6-Chloro-3-pyridazinyl)amino]hexahydrocyclopenta[c]pyrrol-2(1H)-yl}(5-methyl-2-thienyl)methanone] | 1 nM | 5 nM
O=C(c1cc2c(s1)CCOC2)N1C[C@@H]2CC[C@@H](Nc3ccc(Cl)nn3)[C@@H]2C1 [Example 1-4, [(3aS,4R,6aR)-4-[(6-Chloro-3-pyridazinyl)amino]hexahydrocyclopenta[c]pyrrol-2(1H)-yl](6,7-dihydro-4H-thieno[3,2-c]pyran-2-yl)methanone] | 1 nM | 2 nM
Cc1ccc(C(=O)N2C[C@@H]3CC[C@@H](Nc4ccc(Br)nn4)[C@@H]3C2)s1 [Example 2, [(3aS,4R,6aR)-4-[(6-Bromo-3-pyridazinyl)amino]hexahydrocyclopenta[c]pyrrol-2(1H)-yl](5-methyl-2-thienyl)methanone] | < 1 nM | 1 nM
CN1C(=O)CCc2sc(C(=O)N3C[C@@H]4CC[C@@H](Nc5ccc(Br)nn5)[C@@H]4C3)cc21 [Example 3, 2-{[(3aS,4R,6aR)-4-[(6-Bromo-3-pyridazinyl)amino]hexahydrocyclopenta[c]pyrrol-2(1H)-yl]carbonyl}-4-methyl-6,7-dihydrothieno[3,2-b]pyridin-5(4H)-one] | 5 nM | 62 nM
Cc1ccc(C(=O)N2C[C@@H]3CC[C@@H](Nc4ccc(I)nn4)[C@@H]3C2)s1 [Example 5, [(3aS,4R,6aR)-4-[(6-Iodo-3-pyridazinyl)amino]hexahydrocyclopenta[c]pyrrol-2(1H)-yl](5-methyl-2-thienyl)methanone] | 1 nM | 3 nM
Cc1ccc(C(=O)N2C[C@@H]3CC[C@@H](Nc4ccc(Br)nn4)[C@]3(F)C2)s1 [Example 10, [(3aR,4R,6aS)-4-[(6-Bromopyridazin-3-yl)amino]-3a-fluoro-1.3.4.5.6.6a-hexahydrocyclopenta[c]pyrrol-2-yl]-(5-methyl-2-thienyl)methanone] | < 1 nM | 2 nM
O=C(c1cc2c(s1)CCOC2)N1C[C@@H]2CC[C@@H](Nc3ccc(Cl)nn3)[C@]2(F)C1 [Example 12, {(3aR,4R,6aS)-4-[(6-Chloro-3-pyridazinyl)amino]-3a-fluorohexahydrocyclopenta[c]pyrrol-2(1H)-yl}(6,7-dihydro-4H-thieno[3,2-c]pyran-2-yl)methanone] | 1 nM | 1 nM
O=C(c1cc2c(s1)CCOC2)N1C[C@@H]2CC3(CC3)[C@@H](Nc3ccc(Br)nn3)[C@@H]2C1 [Example 15, [(3aS, 4S, 6aR)-4-[(6-Bromopyridazin-3-yl)amino]spiro[1,3,3a,4,6,6a-hexahydrocyclopenta[c]pyrrole-5,1′-cyclopropan]-2-yl]-(6,7-dihydro-4H-thieno[3,2-c]pyran-2-yl)methanone] | 1 nM | 1 nM
O=C(c1cc2c(s1)CCOC2)N1C[C@H]2[C@H](Nc3ccc(Br)nn3)CC(F)(F)[C@H]2C1 [Example 16, [(3aR,6R,6aS)-6-[(6-Bromo-3-pyridazinyl)amino]-4,4-difluorohexahydrocyclopenta[c]pyrrol-2(1H)-yl](6,7-dihydro-4H-thieno[3,2-c]pyran-2-yl)methanone] | 1 nM | 4 nM

Continued, values first:

IC50 [1] | IC50 [2] | Compound
1 nM | 5 nM | Cc1ccc(C(=O)N2C[C@@H]3CC[C@@H](n4ccc5cc(Cl)nnc54)[C@@H]3C2)s1 (racemic) [Example 8-1, rel-[(3aS,4R,6aR)-4-(3-Chloro-7H-pyrrolo[2,3-c]pyridazin-7-yl)hexahydrocyclopenta[c]pyrrol-2(1H)-yl](5-methyl-2-thienyl)methanone]
1 nM | 3 nM | O=C(c1cc2c(s1)CCOC2)N1C[C@@H]2CC[C@@H](Nc3ccc(Br)nn3)[C@@H]2C1 [Example 2-1, [(3aS,4R,6aR)-4-[(6-Bromo-3-pyridazinyl)amino]hexahydrocyclopenta[c]pyrrol-2(1H)-yl](6,7-dihydro-4H-thieno[3,2-c]pyran-2-yl)methanone]
– | 25 nM | CN(C)c1ncc(C(=O)N2C[C@@H]3CC[C@@H](Nc4ccc(Br)nn4)[C@@H]3C2)s1 [Example 2-6, [(3aS,4R,6aR)-4-[(6-Bromo-3-pyridazinyl)amino]hexahydrocyclopenta[c]pyrrol-2(1H)-yl][2-(dimethylamino)-1,3-thiazol-5-yl]methanone]
2 nM | 16 nM | O=C(C1CC2CCC1CC2)N1C[C@@H]2CC[C@@H](Nc3ccc(Br)nn3)[C@@H]2C1 (stereo partly drawn) [Example 2-14, Bicyclo[2.2.2]oct-2-yl[(3aS,4R,6aR)-4-[(6-bromo-3-pyridazinyl)amino]hexahydrocyclopenta[c]pyrrol-2(1H)-yl]methanone]
2 nM | 6 nM | O=C(c1cc2nn3c(c2s1)CCC3)N1C[C@@H]2CC[C@@H](Nc3ccc(Br)nn3)[C@@H]2C1 [Example 3-6, [(3aS,4R,6aR)-4-[(6-Bromo-3-pyridazinyl)amino]hexahydrocyclopenta[c]pyrrol-2(1H)-yl](7,8-dihydro-6H-pyrrolo[1,2-b]thieno[2,3-d]pyrazol-2-yl)methanone]
1 nM | 5 nM | Cn1cc2sc(C(=O)N3C[C@@H]4CC[C@@H](Nc5ccc(Br)nn5)[C@@H]4C3)cc2n1 [Example 3-9, [(3aS,4R,6aR)-4-[(6-Bromo-3-pyridazinyl)amino]hexahydrocyclopenta[c]pyrrol-2(1H)-yl](2-methyl-2H-thieno[3,2-c]pyrazol-5-yl)methanone]
1 nM | 2 nM | O=C(c1cc2nn(C3CC3)cc2s1)N1C[C@@H]2CC[C@@H](Nc3ccc(Br)nn3)[C@@H]2C1 [Example 3-10, [(3aS,4R,6aR)-4-[(6-Bromo-3-pyridazinyl)amino]hexahydrocyclopenta[c]pyrrol-2(1H)-yl](2-cyclopropyl-2H-thieno[3,2-c]pyrazol-5-yl)methanone]
1 nM | 1 nM | Cc1ccc(C(=O)N2C[C@@H]3CC[C@@H](N(Cc4ccccc4)c4ccc(Br)nn4)[C@@H]3C2)s1 [Example 6-2, [(3aS,4R,6aR)-4-[Benzyl(6-bromo-3-pyridazinyl)amino]hexahydrocyclopenta[c]pyrrol-2(1H)-yl](5-methyl-2-thienyl)methanone]
